Experimental data as given in paper PMC11345841, “Exploring 2-Sulfonylpyrimidine Warheads as Acrylamide Surrogates for Targeted Covalent Inhibition: A BTK Story” (Journal of Medicinal Chemistry, 2024).
Read-outs that look alike come from different tables or passages of the source.

How the values were obtained:
BTK, full length (2–659) = BTK, full length (2–659) (Homo sapiens, UniProt Q06187); test: Kinact/Ki determination, PhosphoSens progress curve analysis; type: biochemical
Protocol: Nonlinear regression was performed using the Solver algorithm in Excel. […] Two-step Kinact/Ki fits were extracted from the progress curve analysis of all compounds against BTK, enabling independent Kinact and Ki determinations.

BRK = biological target: T1, BRK (Homo sapiens, UniProt Q13882); test: KINOMEscan ScanTK; type: binding
T1 construct: purchased Eurofins DiscoverX KINOMEscan (scanTK)

CSF1R-autoinhibited = biological target: T2, CSF1R-autoinhibited (Homo sapiens, UniProt P07333); test: KINOMEscan ScanTK; type: binding
T2 construct: purchased Eurofins DiscoverX KINOMEscan (scanTK)
T2 sequence (P07333 539-972 limits assumed): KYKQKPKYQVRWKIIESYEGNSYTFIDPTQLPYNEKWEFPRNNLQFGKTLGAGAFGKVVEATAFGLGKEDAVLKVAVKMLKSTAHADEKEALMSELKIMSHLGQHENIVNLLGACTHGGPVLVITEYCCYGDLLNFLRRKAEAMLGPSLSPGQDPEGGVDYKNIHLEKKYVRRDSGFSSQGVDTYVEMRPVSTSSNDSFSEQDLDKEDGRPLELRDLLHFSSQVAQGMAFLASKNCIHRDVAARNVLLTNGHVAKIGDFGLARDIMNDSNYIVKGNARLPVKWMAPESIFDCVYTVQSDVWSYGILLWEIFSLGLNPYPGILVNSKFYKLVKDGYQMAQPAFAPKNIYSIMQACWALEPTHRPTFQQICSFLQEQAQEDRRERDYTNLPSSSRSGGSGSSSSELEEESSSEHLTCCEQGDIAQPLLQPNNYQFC

DDR2 = biological target: T3, DDR2 (Homo sapiens, UniProt Q16832); test: KINOMEscan ScanTK; type: binding
T3 construct: purchased Eurofins DiscoverX KINOMEscan (scanTK)
T3 sequence (Q16832 22-855): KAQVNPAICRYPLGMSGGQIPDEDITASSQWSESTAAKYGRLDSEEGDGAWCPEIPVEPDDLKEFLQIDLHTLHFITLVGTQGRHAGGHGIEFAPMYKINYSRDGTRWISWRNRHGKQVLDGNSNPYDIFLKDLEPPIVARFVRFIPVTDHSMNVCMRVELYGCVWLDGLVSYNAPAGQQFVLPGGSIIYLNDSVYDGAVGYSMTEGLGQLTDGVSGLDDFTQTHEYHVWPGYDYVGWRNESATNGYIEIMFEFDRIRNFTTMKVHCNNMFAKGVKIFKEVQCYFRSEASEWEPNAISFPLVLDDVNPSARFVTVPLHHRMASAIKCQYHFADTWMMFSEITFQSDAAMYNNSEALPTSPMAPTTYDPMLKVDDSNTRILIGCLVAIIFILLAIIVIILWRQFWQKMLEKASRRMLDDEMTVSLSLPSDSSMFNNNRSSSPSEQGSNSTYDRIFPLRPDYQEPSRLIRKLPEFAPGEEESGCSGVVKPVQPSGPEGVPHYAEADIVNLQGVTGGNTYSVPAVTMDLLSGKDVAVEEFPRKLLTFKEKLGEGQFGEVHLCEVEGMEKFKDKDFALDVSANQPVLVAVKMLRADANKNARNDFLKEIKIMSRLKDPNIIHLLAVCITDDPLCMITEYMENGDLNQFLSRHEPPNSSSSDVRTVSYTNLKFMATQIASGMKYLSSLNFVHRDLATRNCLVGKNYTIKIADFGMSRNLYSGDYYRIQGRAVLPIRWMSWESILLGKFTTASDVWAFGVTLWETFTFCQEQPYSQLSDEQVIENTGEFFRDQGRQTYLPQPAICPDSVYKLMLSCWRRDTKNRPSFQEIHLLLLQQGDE

FLT3 = biological target: T4, FLT3 (Homo sapiens, UniProt P36888); test: KINOMEscan ScanTK; type: binding
T4 construct: purchased Eurofins DiscoverX KINOMEscan (scanTK)
T4 sequence (P36888 27-993): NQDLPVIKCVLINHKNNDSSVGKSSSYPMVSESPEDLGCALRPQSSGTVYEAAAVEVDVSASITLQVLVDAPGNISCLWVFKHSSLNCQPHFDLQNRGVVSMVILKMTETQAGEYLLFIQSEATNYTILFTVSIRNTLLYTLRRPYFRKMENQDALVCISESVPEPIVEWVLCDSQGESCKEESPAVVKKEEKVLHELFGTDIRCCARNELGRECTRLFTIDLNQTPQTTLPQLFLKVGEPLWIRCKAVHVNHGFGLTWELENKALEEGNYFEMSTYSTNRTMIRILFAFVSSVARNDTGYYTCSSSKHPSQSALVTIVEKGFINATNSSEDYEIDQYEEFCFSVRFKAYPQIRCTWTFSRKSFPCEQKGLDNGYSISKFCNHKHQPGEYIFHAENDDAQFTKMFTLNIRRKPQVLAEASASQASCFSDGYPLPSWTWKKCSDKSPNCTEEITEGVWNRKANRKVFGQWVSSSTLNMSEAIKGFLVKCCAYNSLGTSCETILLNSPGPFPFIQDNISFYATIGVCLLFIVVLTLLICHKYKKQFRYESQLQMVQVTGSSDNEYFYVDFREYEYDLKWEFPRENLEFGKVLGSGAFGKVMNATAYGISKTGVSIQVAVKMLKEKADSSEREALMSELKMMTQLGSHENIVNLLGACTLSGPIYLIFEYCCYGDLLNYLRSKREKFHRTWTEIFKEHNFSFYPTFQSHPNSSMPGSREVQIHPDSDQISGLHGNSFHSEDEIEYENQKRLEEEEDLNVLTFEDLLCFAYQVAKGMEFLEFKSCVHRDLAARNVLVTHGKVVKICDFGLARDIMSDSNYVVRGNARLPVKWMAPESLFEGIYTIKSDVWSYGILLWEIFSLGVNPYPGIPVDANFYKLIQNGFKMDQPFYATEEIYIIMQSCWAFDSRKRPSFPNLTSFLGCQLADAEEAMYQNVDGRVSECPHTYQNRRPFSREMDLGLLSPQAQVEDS

HCK = biological target: T5, HCK (Homo sapiens, UniProt P08631); test: KINOMEscan ScanTK; type: binding
T5 construct: purchased Eurofins DiscoverX KINOMEscan (scanTK)

IGF1R = biological target: T6, IGF1R (Homo sapiens, UniProt P08069); test: KINOMEscan ScanTK; type: binding
T6 construct: purchased Eurofins DiscoverX KINOMEscan (scanTK)

[1] = @1000nM, DDR2, read-out: %Control
[2] = DDR2, read-out: %Control @1000nM

Chain of BTK, full length (2–659) (Q06187 2-659): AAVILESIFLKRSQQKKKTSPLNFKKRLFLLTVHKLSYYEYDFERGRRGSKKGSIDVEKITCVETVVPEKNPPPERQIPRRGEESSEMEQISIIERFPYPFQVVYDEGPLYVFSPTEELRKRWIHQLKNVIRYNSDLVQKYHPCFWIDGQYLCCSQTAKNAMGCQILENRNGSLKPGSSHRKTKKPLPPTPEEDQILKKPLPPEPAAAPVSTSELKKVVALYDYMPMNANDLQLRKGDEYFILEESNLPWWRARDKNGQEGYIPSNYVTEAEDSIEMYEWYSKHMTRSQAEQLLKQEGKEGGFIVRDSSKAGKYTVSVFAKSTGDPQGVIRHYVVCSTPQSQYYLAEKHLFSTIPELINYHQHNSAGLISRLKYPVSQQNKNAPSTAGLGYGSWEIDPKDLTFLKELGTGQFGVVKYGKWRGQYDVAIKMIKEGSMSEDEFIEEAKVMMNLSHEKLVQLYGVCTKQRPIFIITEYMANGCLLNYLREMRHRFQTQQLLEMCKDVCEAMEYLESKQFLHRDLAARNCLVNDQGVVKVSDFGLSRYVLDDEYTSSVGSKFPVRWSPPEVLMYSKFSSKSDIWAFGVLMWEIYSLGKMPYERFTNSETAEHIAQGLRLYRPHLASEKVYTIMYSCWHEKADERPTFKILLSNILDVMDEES
T1 sequence (Q13882 whole entry): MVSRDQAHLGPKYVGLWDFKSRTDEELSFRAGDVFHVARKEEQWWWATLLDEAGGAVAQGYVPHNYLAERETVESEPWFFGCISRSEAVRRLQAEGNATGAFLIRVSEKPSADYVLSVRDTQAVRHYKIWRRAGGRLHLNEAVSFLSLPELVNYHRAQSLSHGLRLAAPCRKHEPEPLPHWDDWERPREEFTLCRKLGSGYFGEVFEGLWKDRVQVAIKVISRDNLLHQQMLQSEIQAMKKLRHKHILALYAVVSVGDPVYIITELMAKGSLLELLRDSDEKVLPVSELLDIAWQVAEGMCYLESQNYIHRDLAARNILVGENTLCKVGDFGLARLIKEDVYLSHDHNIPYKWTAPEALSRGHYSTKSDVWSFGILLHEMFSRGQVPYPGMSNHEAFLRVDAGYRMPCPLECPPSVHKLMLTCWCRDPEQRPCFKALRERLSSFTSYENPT
T5 sequence (P08631 whole entry): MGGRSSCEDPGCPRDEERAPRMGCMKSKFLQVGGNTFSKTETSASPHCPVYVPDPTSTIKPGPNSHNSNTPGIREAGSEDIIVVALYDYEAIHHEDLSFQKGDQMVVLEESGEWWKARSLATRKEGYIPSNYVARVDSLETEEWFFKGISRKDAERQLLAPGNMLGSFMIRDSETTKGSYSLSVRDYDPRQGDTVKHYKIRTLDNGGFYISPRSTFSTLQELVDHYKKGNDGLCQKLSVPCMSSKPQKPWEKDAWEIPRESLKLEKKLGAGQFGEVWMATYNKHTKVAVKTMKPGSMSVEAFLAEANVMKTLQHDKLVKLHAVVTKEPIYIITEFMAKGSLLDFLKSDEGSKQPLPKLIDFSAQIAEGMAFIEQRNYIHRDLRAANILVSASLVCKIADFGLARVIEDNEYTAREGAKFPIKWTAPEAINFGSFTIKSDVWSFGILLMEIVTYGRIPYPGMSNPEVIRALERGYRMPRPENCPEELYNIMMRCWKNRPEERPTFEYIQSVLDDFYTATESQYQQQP
T6 sequence (P08069 31-1367): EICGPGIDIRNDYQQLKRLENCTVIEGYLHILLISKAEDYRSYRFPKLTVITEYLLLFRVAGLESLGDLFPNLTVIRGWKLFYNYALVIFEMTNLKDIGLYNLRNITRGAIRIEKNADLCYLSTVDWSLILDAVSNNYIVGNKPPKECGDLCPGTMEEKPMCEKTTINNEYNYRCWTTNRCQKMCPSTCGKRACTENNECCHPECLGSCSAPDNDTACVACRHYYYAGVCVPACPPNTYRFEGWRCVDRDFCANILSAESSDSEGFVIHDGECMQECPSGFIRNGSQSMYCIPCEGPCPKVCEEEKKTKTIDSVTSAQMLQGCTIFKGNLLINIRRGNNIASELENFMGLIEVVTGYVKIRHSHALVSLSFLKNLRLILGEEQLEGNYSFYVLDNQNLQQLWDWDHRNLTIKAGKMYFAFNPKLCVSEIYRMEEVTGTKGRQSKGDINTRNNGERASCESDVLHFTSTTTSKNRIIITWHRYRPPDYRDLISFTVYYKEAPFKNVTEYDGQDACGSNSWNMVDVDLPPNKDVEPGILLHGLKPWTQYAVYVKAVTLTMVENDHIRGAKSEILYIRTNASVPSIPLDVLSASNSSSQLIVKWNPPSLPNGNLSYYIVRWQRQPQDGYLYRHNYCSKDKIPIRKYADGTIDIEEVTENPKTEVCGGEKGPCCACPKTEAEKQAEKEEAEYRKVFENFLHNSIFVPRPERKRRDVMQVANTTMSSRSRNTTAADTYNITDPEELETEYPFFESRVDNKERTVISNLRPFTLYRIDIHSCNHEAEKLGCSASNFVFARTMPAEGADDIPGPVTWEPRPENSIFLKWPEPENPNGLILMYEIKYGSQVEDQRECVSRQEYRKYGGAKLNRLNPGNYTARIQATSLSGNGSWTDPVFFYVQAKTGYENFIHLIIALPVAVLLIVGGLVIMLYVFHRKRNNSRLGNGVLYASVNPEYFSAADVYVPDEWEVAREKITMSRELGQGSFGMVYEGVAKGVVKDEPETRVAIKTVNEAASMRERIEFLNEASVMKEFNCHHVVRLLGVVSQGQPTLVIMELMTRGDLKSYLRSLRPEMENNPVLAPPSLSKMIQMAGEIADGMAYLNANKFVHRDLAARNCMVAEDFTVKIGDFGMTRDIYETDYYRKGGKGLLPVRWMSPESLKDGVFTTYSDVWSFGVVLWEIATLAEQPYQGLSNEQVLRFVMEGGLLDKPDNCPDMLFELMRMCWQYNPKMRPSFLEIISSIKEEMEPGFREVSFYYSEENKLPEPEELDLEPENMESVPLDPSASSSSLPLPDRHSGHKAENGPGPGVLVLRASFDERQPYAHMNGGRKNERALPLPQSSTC

Row | SMILES | Ki (BTK, full length (2–659); BTK) [nM] | kinact (BTK, full length (2–659); BTK) [s⁻¹] | difference in %Control relative to compound Ib at 1 µM (BRK; @1000nM) [%] | remaining binding at 1 µM (BRK; @1000nM, read-out: %Control) [%] | remaining binding at 1 µM (BRK; read-out: %Control @1000nM) [%] | difference in %Control versus compound Ib at 1 µM (CSF1R-autoinhibited; @1000nM) [%] | remaining binding at 1 µM (CSF1R-autoinhibited; @1000nM, read-out: %Control) [%] | remaining binding at 1 µM (CSF1R-autoinhibited; read-out: %Control @1000nM) [%] | difference in %Control from reference compound Ib at 1 µM (DDR2; @1000nM, DDR2) [%] | remaining binding at 1 µM (DDR2; [1]) [%] | remaining binding at 1 µM (DDR2; [2]) [%] | difference in %Control from compound Ib at 1 µM (FLT3; @1000nM) [%] | remaining binding at 1 µM (FLT3; @1000nM, read-out: %Control) [%] | remaining binding at 1 µM (FLT3; read-out: %Control @1000nM) [%] | difference in %Control from compound Ib at 1 µM (HCK; @1000nM) [%] | remaining binding at 1 µM (HCK; @1000nM, read-out: %Control) [%] | remaining binding at 1 µM (HCK; read-out: %Control @1000nM) [%] | % Control difference from reference compound Ib at 1 µM (IGF1R; @1000nM) [%] | remaining binding at 1 µM (IGF1R; @1000nM, read-out: %Control) [%] | remaining binding at 1 µM (IGF1R; read-out: %Control @1000nM) [%] | other results
1 | CNC(=O)c1cnc(S(C)(=O)=O)nc1N1CCCC(n2nc(-c3ccc(Oc4ccccc4)cc3)c3c(N)ncnc32)C1 (stereo not shown) [Compound 8d, 4-(3-(4-Amino-3-(4-phenoxyphenyl)-1H-pyrazolo[3,4-d]pyrimidin-1-yl)piperidin-1-yl)-N-methyl-2-(methylsulfonyl)pyrimidine-5-carboxamide] | 5.07 ± 0.36 | 0.0126 ± 0.00067 | 13.7 | 15 | 15 | 9 | 86 | 86 | -15 | 82 | 82 | 32 | 65 | 65 | 6.8 | 12 | 12 | 4 | 100 | 100 | kinact/KI (BTK, full length (2–659)): 2.49e+06 M⁻¹ s⁻¹; fold reduction of Kinact/Ki (potency) relative to 1g (BTK, full length (2–659); BTK): 3 fold
2 | C=CC(=O)N1CCC[C@@H](n2nc(-c3ccc(Oc4ccccc4)cc3)c3c(N)ncnc32)C1 [Compound 1g, Ibrutinib, reference compound] |  |  |  | 1.3 | 1.3 |  | 77 | 77 |  |  |  |  | 33 | 33 |  | 5.2 | 5.2 |  | 96 | 96 | remaining binding at 1 µM (DDR2; read-out: %Control): 97%; remaining binding at 1 µM (DDR2; read-out: %Control @1000nM): 97%
3 | Cc1cnc(S(C)(=O)=O)nc1N1CCCC(n2nc(-c3ccc(Oc4ccccc4)cc3)c3c(N)ncnc32)C1 (stereo not shown) [Compound 8a, 1-(1-(5-Methyl-2-(methylsulfonyl)pyrimidin-4-yl)piperidin-3-yl)-3-(4-phenoxyphenyl)-1H-pyrazolo[3,4-d]pyrimidin-4-amine] | 9.08 ± 0.41 | 0.00659 ± 0.00019 | 13.7 | 15 | 15 | 11 | 88 | 88 | -5 | 92 | 92 | 21 | 54 | 54 | 1.3 | 6.5 | 6.5 | 4 | 100 | 100 | kinact/KI (BTK, full length (2–659); BTK, read-out: Kinact/Ki): 726000 M⁻¹ s⁻¹

The next lines start with results.

Row | Ki (BTK, full length (2–659); BTK) [nM] | kinact (BTK, full length (2–659); BTK) [s⁻¹] | difference in %Control relative to compound Ib at 1 µM (BRK; @1000nM) [%] | remaining binding at 1 µM (BRK; @1000nM, read-out: %Control) [%] | remaining binding at 1 µM (BRK; read-out: %Control @1000nM) [%] | difference in %Control versus compound Ib at 1 µM (CSF1R-autoinhibited; @1000nM) [%] | remaining binding at 1 µM (CSF1R-autoinhibited; @1000nM, read-out: %Control) [%] | remaining binding at 1 µM (CSF1R-autoinhibited; read-out: %Control @1000nM) [%] | difference in %Control from reference compound Ib at 1 µM (DDR2; @1000nM, DDR2) [%] | remaining binding at 1 µM (DDR2; [1]) [%] | remaining binding at 1 µM (DDR2; [2]) [%] | difference in %Control from compound Ib at 1 µM (FLT3; @1000nM) [%] | remaining binding at 1 µM (FLT3; @1000nM, read-out: %Control) [%] | remaining binding at 1 µM (FLT3; read-out: %Control @1000nM) [%] | difference in %Control from compound Ib at 1 µM (HCK; @1000nM) [%] | remaining binding at 1 µM (HCK; @1000nM, read-out: %Control) [%] | remaining binding at 1 µM (HCK; read-out: %Control @1000nM) [%] | % Control difference from reference compound Ib at 1 µM (IGF1R; @1000nM) [%] | remaining binding at 1 µM (IGF1R; @1000nM, read-out: %Control) [%] | remaining binding at 1 µM (IGF1R; read-out: %Control @1000nM) [%] | SMILES | other results
4 |  |  | 52.7 | 54 | 54 | 20 | 97 | 97 | -22 | 75 | 75 | 60 | 93 | 93 | 22.8 | 28 | 28 | -4 | 92 | 92 | CCOC(=O)c1cnc(S(C)(=O)=O)nc1N1CCC[C@@H](n2nc(-c3ccc(Oc4ccccc4)cc3)c3c(N)ncnc32)C1 [Compound 8c, Ethyl (R)-4-(3-(4-Amino-3-(4-phenoxyphenyl)-1H-pyrazolo[3,4-d]pyrimidin-1-yl)piperidin-1-yl)-2-(methylsulfonyl)pyrimidine-5-carboxylate] | 
5 | 24.2 ± 0.95 | 0.00792 ± 0.00019 | 40.7 | 42 | 42 | 7 | 84 | 84 | -6 | 91 | 91 | 47 | 80 | 80 | 10.8 | 16 | 16 | -2 | 94 | 94 | COC(=O)c1cnc(S(C)(=O)=O)nc1N1CCCC(n2nc(-c3ccc(Oc4ccccc4)cc3)c3c(N)ncnc32)C1 (stereo not shown) [Compound 8b, Methyl 4-(3-(4-Amino-3-(4-phenoxyphenyl)-1H-pyrazolo[3,4-d]pyrimidin-1-yl)piperidin-1-yl)-2-(methylsulfonyl)pyrimidine-5-carboxylate] | kinact/KI (BTK, full length (2–659); BTK, read-out: Kinact/Ki): 328000 M⁻¹ s⁻¹
